Values of other authors, collected in article PMC5073354, “Direct and indirect mechanisms of KLK4 inhibition revealed by structure and dynamics” (Scientific Reports, 2016).

What was measured:
KLK4 [1] = tested on: KLK4
Text: Since the trypsin-SFTI-1 and matriptase-SFTI-1 protease/inhibitor complexes have been characterized by X-ray crystallography, a structural context is available to dissect relative potencies. […] To examine the interaction between KLK4 and inhibitor we determined the X-ray crystal structure of a KLK4-SFTI-1 complex to 1.0 Å resolution. The inhibitor structure is well-resolved except for missing density in the backbone of Pro13 and the side chain of Asp14. The contact β-sheet of SFTI-1 has multiple interactions with the KLK4 active site, including the P1 Lys5 inserting into the S1 pocket of KLK4 (Fig. 1B). || When comparing the structure of SFTI-1 in the context of trypsin, matriptase and KLK4, differences in the interface correlate to the potency of inhibition. […] Comparison of the structures provides arguments to support this lowered inhibition. SFTI-1 has less buried surface area and fewer interactions with KLK4 than with either trypsin or matriptase (Table S1). SFTI-1 behaves as a Laskowski inhibitor, interacting with its targets following the classi ... || (+ 1 further places)

matriptase = tested on: matriptase
Text: (§1) Since the trypsin-SFTI-1 and matriptase-SFTI-1 protease/inhibitor complexes have been characterized by X-ray crystallography, a structural context is available to dissect relative potencies.

trypsin = tested on: trypsin
Text: as §1

KLK4 [2] = settings: ion binding to residues more than 20 Å from the active site
Text: To gain more insight into this mode of inhibition, we crystallized KLK4 under identical conditions but in the absence of PABA inhibitor.

Factor VIIa = settings: FVIIa not bound to tissue factor
Text: Kallikreins are proteases that perform catalysis in organs with high zinc concentrations. The KLK4 inactivation by nickel described in this work is also proposed to apply to zinc binding to the same […]/[…] site[23]. A molecular understanding of zinc-mediated inhibition of members of the kallikrein family is emerging with three types of inhibition seen[41]. […] This is proposed to inhibit activity by […][42]. Second, zinc binding to residues in loop IV (also known ...

KLK4 [3] = settings: library of tetrapeptide pNA substrates with invariant P1 Arg
Text: We previously tested the amidolytic activity of KLK4 against a focused library of synthetic tetrapeptide substrates with an invariant P1 Arg[13]. […] To investigate the structural basis for increased potency, we solved the crystal struct ...

## 1GRCTKSIPPICFPD14 (bicyclic or more) [SFTI-1, sunflower trypsin inhibitor-1, 14 amino acid bicyclic peptide; backbone cyclization coupled with an intramolecular disulfide linkage]
KLK4 [1]; discrepancy in reported SFTI-1 inhibition constants (ref 12, 26, 27)
  rank of potency, KLK4 versus trypsin and matriptase (in words): KLK4 is thought to be the least potently inhibited
KLK4 [1]; proteolytic activity of KLK4
  inhibition of KLK4 (in words): potently inhibits KLK4 proteolytic activity
matriptase
  inhibition of matriptase (in words): inhibit KLK4 in addition to trypsin and matriptase
trypsin
  inhibition of trypsin (in words): inhibit KLK4 in addition to trypsin and matriptase

## [Ni+2] [Ni^2+, nickel]
KLK4 [2]
  inhibition of KLK4 by metal (in words): KLK4 can be inhibited

## [Ca+2] [calcium]
Factor VIIa; zinc-inhibited
  reversal of zinc inhibition of FVIIa (in words): can reverse this inhibition with calcium

## [Zn+2] [zinc]
Factor VIIa
  inhibition of FVIIa by zinc (in words): is inhibited by zinc

## FVQR-p-nitroanilide [FVQR-p-nitroanilide (pNA)]
KLK4 [3]
  amidolytic activity of KLK4 for substrate (in words): highest activity
